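The compound was tested at five concentrations on cells cultured in 96-well plates, with a 48-hour exposure period. Abbreviation: GI50, concentration required for 50% inhibition of growth. TGI denotes the concentration required for complete inhibition of growth.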
Experiments:
Assay in all cases: NCI tumour cell line growth inhibition, 48 h
786-0 renal = tested on: 786-0 renal
A498 renal = tested on: A498 renal
A549 NSCLC = tested on: A549 NSCLC
ACHN renal = tested on: ACHN renal
BT-549 breast = tested on: BT-549 breast
CAKI-1 renal = tested on: CAKI-1 renal
CCRF-CEM leukemia = tested on: CCRF-CEM leukemia
COLO 205 colon = tested on: COLO 205 colon
DU-145 prostate = tested on: DU-145 prostate
EKVX NSCLC = tested on: EKVX NSCLC
HCC-2998 colon = tested on: HCC-2998 colon
HCT-116 colon = tested on: HCT-116 colon
HCT-15 colon = tested on: HCT-15 colon
HL-60(TB) leukemia = tested on: HL-60(TB) leukemia
HOP-62 NSCLC = tested on: HOP-62 NSCLC
HOP-92 NSCLC = tested on: HOP-92 NSCLC
HS 578T breast = tested on: HS 578T breast
HT29 colon = tested on: HT29 colon
IGROV1 ovarian = tested on: IGROV1 ovarian
K-562 leukemia = tested on: K-562 leukemia
KM12 colon = tested on: KM12 colon
LOX IMVI melanoma = tested on: LOX IMVI melanoma
M14 melanoma = tested on: M14 melanoma
MALME-3M melanoma = tested on: MALME-3M melanoma
MCF7 breast = tested on: MCF7 breast
MDA-MB-435 = tested on: MDA-MB-435
MDA-MB-468 breast = tested on: MDA-MB-468 breast
MOLT-4 leukemia = tested on: MOLT-4 leukemia
NCI-H226 lung = tested on: NCI-H226 lung
NCI-H23 lung = tested on: NCI-H23 lung
NCI-H460 lung = tested on: NCI-H460 lung
NCI-H522 lung = tested on: NCI-H522 lung
NCI/ADR-RES ovarian = tested on: NCI/ADR-RES ovarian
OVCAR-3 ovarian = tested on: OVCAR-3 ovarian
OVCAR-4 ovarian = tested on: OVCAR-4 ovarian
OVCAR-5 ovarian = tested on: OVCAR-5 ovarian
OVCAR-8 ovarian = tested on: OVCAR-8 ovarian
PC-3 prostate = tested on: PC-3 prostate
RPMI-8226 leukemia = tested on: RPMI-8226 leukemia
RXF 393 renal = tested on: RXF 393 renal
SF-268 CNS = tested on: SF-268 CNS
SF-295 CNS = tested on: SF-295 CNS
SF-539 CNS = tested on: SF-539 CNS
SK-MEL-28 melanoma = tested on: SK-MEL-28 melanoma
SK-MEL-5 melanoma = tested on: SK-MEL-5 melanoma
SK-OV-3 ovarian = tested on: SK-OV-3 ovarian
SN12C renal = tested on: SN12C renal
SNB-19 CNS = tested on: SNB-19 CNS
SR leukemia = tested on: SR leukemia
SW-620 colon = tested on: SW-620 colon
T-47D breast = tested on: T-47D breast
TK-10 renal = tested on: TK-10 renal
U251 CNS = tested on: U251 CNS
UACC-257 melanoma = tested on: UACC-257 melanoma
UACC-62 melanoma = tested on: UACC-62 melanoma

CC[C@]12C=CCN3CC[C@@]4(c5ccc(OC)cc5N(C)[C@H]4[C@@](O)(C(=O)OC)[C@@H]1OC(=O)CCC[P+](c1ccc(F)cc1)(c1ccc(F)cc1)c1ccc(F)cc1)[C@@H]32
GI50 (786-0 renal): > 48.5 µM | TGI (786-0 renal): > 48.5 µM | GI50 (A498 renal): > 48.5 µM | TGI (A498 renal): > 48.5 µM | GI50 (A549 NSCLC): 21.2 µM | TGI (A549 NSCLC): > 48.5 µM | GI50 (ACHN renal): > 48.5 µM | TGI (ACHN renal): > 48.5 µM | GI50 (BT-549 breast): 8.13 µM | TGI (BT-549 breast): 26.5 µM | GI50 (CAKI-1 renal): > 48.5 µM | TGI (CAKI-1 renal): > 48.5 µM | GI50 (CCRF-CEM leukemia): 12.7 µM | TGI (CCRF-CEM leukemia): 37.4 µM | GI50 (COLO 205 colon): 4.98 µM | TGI (COLO 205 colon): 11.1 µM | GI50 (DU-145 prostate): 23.7 µM | TGI (DU-145 prostate): > 48.5 µM | GI50 (EKVX NSCLC): 19.4 µM | TGI (EKVX NSCLC): > 48.5 µM | GI50 (HCC-2998 colon): 9.53 µM | TGI (HCC-2998 colon): 30 µM | GI50 (HCT-116 colon): 14.8 µM | TGI (HCT-116 colon): > 48.5 µM | GI50 (HCT-15 colon): > 48.5 µM | TGI (HCT-15 colon): > 48.5 µM | GI50 (HL-60(TB) leukemia): 1.77 µM | TGI (HL-60(TB) leukemia): 7.82 µM | GI50 (HOP-62 NSCLC): 20.5 µM | TGI (HOP-62 NSCLC): > 48.5 µM | GI50 (HOP-92 NSCLC): 5.44 µM | TGI (HOP-92 NSCLC): 19.9 µM | GI50 (HS 578T breast): 11.8 µM | TGI (HS 578T breast): 42.4 µM | GI50 (HT29 colon): 12.5 µM | TGI (HT29 colon): > 48.5 µM | GI50 (IGROV1 ovarian): 7.09 µM | TGI (IGROV1 ovarian): 18.2 µM | GI50 (K-562 leukemia): 9.83 µM | TGI (K-562 leukemia): > 48.5 µM | GI50 (KM12 colon): 8.96 µM | TGI (KM12 colon): 20.6 µM | GI50 (LOX IMVI melanoma): 16.6 µM | TGI (LOX IMVI melanoma): > 48.5 µM | GI50 (M14 melanoma): 9.1 µM | TGI (M14 melanoma): 28.9 µM | GI50 (MALME-3M melanoma): 6.85 µM | TGI (MALME-3M melanoma): 14 µM | GI50 (MCF7 breast): 8.26 µM | TGI (MCF7 breast): 30.8 µM | GI50 (MDA-MB-435): 8.14 µM | TGI (MDA-MB-435): 18.5 µM | GI50 (MDA-MB-468 breast): 1.5 µM | TGI (MDA-MB-468 breast): 6.3 µM | GI50 (MOLT-4 leukemia): 9.69 µM | TGI (MOLT-4 leukemia): > 48.5 µM | GI50 (NCI-H226 lung): 24.2 µM | TGI (NCI-H226 lung): > 48.5 µM | GI50 (NCI-H23 lung): 15.8 µM | TGI (NCI-H23 lung): > 48.5 µM | GI50 (NCI-H460 lung): 17 µM | TGI (NCI-H460 lung): > 48.5 µM | GI50 (NCI-H522 lung): 3.88 µM | TGI (NCI-H522 lung): 32 µM | GI50 (NCI/ADR-RES ovarian): > 48.5 µM | TGI (NCI/ADR-RES ovarian): > 48.5 µM | GI50 (OVCAR-3 ovarian): 6.47 µM | TGI (OVCAR-3 ovarian): 40.7 µM | GI50 (OVCAR-4 ovarian): 16.2 µM | TGI (OVCAR-4 ovarian): > 48.5 µM | GI50 (OVCAR-5 ovarian): 20.8 µM | TGI (OVCAR-5 ovarian): > 48.5 µM | GI50 (OVCAR-8 ovarian): 18.4 µM | TGI (OVCAR-8 ovarian): > 48.5 µM | GI50 (PC-3 prostate): 12.6 µM | TGI (PC-3 prostate): > 48.5 µM | GI50 (RPMI-8226 leukemia): 2.05 µM | TGI (RPMI-8226 leukemia): 9.33 µM | GI50 (RXF 393 renal): 8.46 µM | TGI (RXF 393 renal): 30.7 µM | GI50 (SF-268 CNS): 15 µM | TGI (SF-268 CNS): > 48.5 µM | GI50 (SF-295 CNS): > 48.5 µM | TGI (SF-295 CNS): > 48.5 µM | GI50 (SF-539 CNS): 16.8 µM | TGI (SF-539 CNS): > 48.5 µM | GI50 (SK-MEL-28 melanoma): 5.34 µM | TGI (SK-MEL-28 melanoma): 11.6 µM | GI50 (SK-MEL-5 melanoma): 8.26 µM | TGI (SK-MEL-5 melanoma): 15.7 µM | GI50 (SK-OV-3 ovarian): 15.8 µM | TGI (SK-OV-3 ovarian): > 48.5 µM | GI50 (SN12C renal): 14.8 µM | TGI (SN12C renal): > 48.5 µM | GI50 (SNB-19 CNS): 11.4 µM | TGI (SNB-19 CNS): > 48.5 µM | GI50 (SR leukemia): 7.45 µM | TGI (SR leukemia): 17.3 µM | GI50 (SW-620 colon): 18.3 µM | TGI (SW-620 colon): > 48.5 µM | GI50 (T-47D breast): 10.5 µM | TGI (T-47D breast): > 48.5 µM | GI50 (TK-10 renal): 22.2 µM | TGI (TK-10 renal): > 48.5 µM | GI50 (U251 CNS): 9.36 µM | TGI (U251 CNS): > 48.5 µM | GI50 (UACC-257 melanoma): 4.67 µM | TGI (UACC-257 melanoma): 12 µM | GI50 (UACC-62 melanoma): 6.05 µM | TGI (UACC-62 melanoma): 12.3 µM
